For data set [1], the system named is A549 lung adenocarcinoma cell line. The experiment in a line: Cell viability assay (MTT). Format: cell-based, human. Particulars: Table S2; MTT, 24 h; mean ± sd; N = 2 independent measurements with six technical replicates each (Figs S6-S8); read-out: A549 EC50 /µM. The gist of the method:
(§1)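 Viability by MTT: 10^4 cells/well exposed 24 h to 2-fold peptide dilutions from 100 μM in DMEM, then 1 h with 0.5 mg mL−1 MTT; absorbance at 540 nm relative to peptide-free medium as 100% survival. EC50 from a 3-parameter log-logistic fit.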

Data set [2] has as its system MCF7 breast adenocarcinoma cell line. The experiment in a line: Cell viability assay (MTT). Format: cell-based, human. Particulars: Table S2, 24 h, mean ± sd, N = 2 independent measurements with six technical replicates each (Figs S6-S8). The gist of the method:
as §1

Data set [3] deals with noncancer HDMEC primary cells (human dermal microvascular endothelial cells). Description: Cell viability assay (MTT). Format: cell-based. Particulars: Table S2; noncancer primary cells; MTT, 24 h; mean ± sd; N = 2 independent measurements with six technical replicates each (Figs S6-S8). The gist of the method:
as §1

For another data set, the system named is human erythrocytes. The experiment in a line: Hemolysis assay. Type of data set: cell-based. The following applies: red cells of human, 1 h. The gist of the method:
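Washed human erythrocytes (5% v/v in PBS) were mixed with peptide plated as a 200–6.25 μM series, in triplicate, for 1 h at 37 °C. Released haemoglobin in the supernatant was read at 540 nm, scaled to 0.1% Triton X-100 (100%) and PBS (0%). HC50 came from a 3-parameter log-logistic fit.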

Peptide text beside a SMILES is read from it.

Regarding `CC[C@H](C)[C@H](NC(=O)[C@H](CC(C)C)NC(=O)[C@@H](N)CCCNC(=N)N)C(=O)N[C@@H](CCCCN)C(=O)N[C@@H](CCCNC(=N)N)C(=O)N[C@@H](CC(C)C)C(=O)N[C@@H](CCCCN)C(=O)N[C@H](C(=O)N[C@@H](Cc1ccccc1)C(=O)N[C@H](C(=O)N[C@@H](CCCNC(=N)N)C(=O)N[C@@H](CCCCN)C(=O)N[C@H](C(=O)N[C@@H](Cc1c[nH]c2ccccc12)C(=O)N[C@@H](CCCCN)C(=O)N[C@@H](Cc1c[nH]c2ccccc12)C(=O)N[C@H](C(=O)NCC(=O)N[C@@H](Cc1c[nH]cn1)C(=O)N[C@@H](Cc1ccccc1)C(N)=O)C(C)C)[C@@H](C)O)C(C)C)[C@@H](C)O` [Off7] (H-RLIKRLKTFVRKTWKWVGHF-NH2), the EC50 came out at 52 ± 2 µM in data set [1], 39 ± 3 µM in data set [2] and 12 ± 3 µM in data set [3]. Also, the “Eryhtr. HC50 /µM” value in the data set on human erythrocytes came to 95 ± 7 µM.

In the case of `CC(C)C[C@H](NC(=O)[C@H](CCCNC(=N)N)NC(=O)CNC(=O)[C@H](CC(C)C)NC(=O)[C@@H](NC(=O)[C@H](CCCCN)NC(=O)[C@H](Cc1c[nH]c2ccccc12)NC(=O)[C@H](Cc1ccc(O)cc1)NC(=O)[C@H](CCCNC(=N)N)NC(=O)[C@H](CCCCN)NC(=O)[C@H](Cc1ccc(O)cc1)NC(=O)[C@@H](NC(=O)[C@@H](NC(=O)[C@H](CCCCN)NC(=O)[C@H](Cc1ccccc1)NC(=O)[C@H](Cc1c[nH]cn1)NC(=O)[C@H](CCCCN)NC(=O)[C@H](CC(C)C)NC(=O)[C@H](Cc1ccccc1)NC(=O)[C@@H](N)CCCNC(=N)N)[C@@H](C)O)C(C)C)C(C)C)C(N)=O` [Off8] (H-RFLKHFKTVYKRYWKVLGRL-NH2), the EC50 in data set [1] was determined as 17 ± 4 µM; in data set [2], 11.9 ± 0.1 µM; in data set [3], 14.3 ± 0.2 µM. Moreover, the “Eryhtr. HC50 /µM” value in the data set with human erythrocytes was 144 ± 4 µM.

For `CC[C@H](C)[C@H](NC(=O)[C@H](CC(C)C)NC(=O)[C@@H](N)CCCCN)C(=O)N[C@@H](Cc1c[nH]cn1)C(=O)N[C@@H](CCCNC(=N)N)C(=O)N[C@@H](CC(C)C)C(=O)N[C@@H](CCCCN)C(=O)N[C@H](C(=O)N[C@H](C(=O)N[C@@H](Cc1ccccc1)C(=O)N[C@@H](CCCCN)C(=O)N[C@@H](CCCCN)C(=O)N[C@H](C(=O)N[C@@H](Cc1c[nH]c2ccccc12)C(=O)N[C@@H](Cc1c[nH]cn1)C(=O)N[C@@H](Cc1ccccc1)C(=O)N[C@@H](CC(C)C)C(=O)NCC(=O)N[C@@H](Cc1c[nH]cn1)C(=O)N[C@@H](CC(C)C)C(N)=O)C(C)C)C(C)C)[C@@H](C)O` [Off9] (H-KLIHRLKTVFKKVWHFLGHL-NH2), the EC50 in data set [1] is 22 ± 4 µM; in data set [2], 18.9 ± 0.2 µM; in data set [3] it was 22 ± 3 µM. Also, the “Eryhtr. HC50 /µM” value in the data set on human erythrocytes turned out to be 41 ± 3 µM.

With `CC[C@H](C)[C@H](NC(=O)[C@H](CCCCN)NC(=O)[C@@H]1CCCN1C(=O)[C@H](Cc1c[nH]c2ccccc12)NC(=O)[C@@H](NC(=O)[C@H](CCC(=O)O)NC(=O)[C@H](Cc1c[nH]c2ccccc12)NC(=O)[C@H](Cc1ccccc1)NC(=O)[C@H](CCCCN)NC(=O)[C@H](CCCCN)NC(=O)[C@@H](NC(=O)[C@@H](NC(=O)[C@@H](NC(=O)[C@H](CCCCN)NC(=O)[C@H](CC(C)C)NC(=O)[C@H](CCC(N)=O)NC(=O)[C@H](CCCNC(=N)N)NC(=O)[C@@H](NC(=O)[C@H](CCCNC(=N)N)NC(=O)[C@@H](N)Cc1c[nH]cn1)[C@@H](C)CC)[C@@H](C)O)[C@@H](C)O)[C@@H](C)CC)[C@@H](C)CC)C(N)=O` [Off10] (H-HRIRQLKTTIKKFWEIWPKI-NH2), the EC50 in data set [1] was determined as 83 ± 11 µM; in data set [2] it was 56 ± 5 µM; in data set [3] it was 58.1 ± 0.3 µM. Besides, the “Eryhtr. HC50 /µM” value in the data set with human erythrocytes is recorded as greater than 200 µM.

The record behind these values is paper PMC6677754, “In silico design and optimization of selective membranolytic anticancer peptides” (Scientific Reports, 2019).
